Measurements as given in patent US20180099931A1 (AbbVie S.à.r.l., priority 2016, published 2018).
Read-outs that look alike come from different tables or passages of the source.

Molecular target: T1, F508delCFTR (Homo sapiens, UniProt P13569, DEL508-508)
T1 construct: expressed in transfected cells; host or cells: CFBE41o- human lung-derived epithelial cells (CFBE4lo-F508delCFTR-HRP), doxycycline-inducible
Assay: Cell Surface Expression-Horse Radish Peroxidase (CSE-HRP) Assay;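 on Maximum % activity (with co-corrector): co-corrector and positive control are both the same reference corrector at 2 µM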;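 on Maximum % activity (without co-corrector): percent of the 2 µM on-plate positive control corrector response above DMSO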
Type: cell-based
Details: for Maximum % activity (with co-corrector) / Emax: maximum at any tested concentration, normalized to on-plate positive control; for Emax: read-out: Maximum % activity (without co-corrector)

[1] = CSE-HRP, test compound without co-corrector, read-out: EC50 (without co-corrector)
[2] = CSE-HRP, with co-corrector (2 μM of 3-[(2R,4R)-4-({[1-(2,2-difluoro-1,3-benzodioxol-5-yl)cyclopropyl]carbonyl}amino)-7-methoxy-3,4-dihydro-2H-chromen-2-yl]benzoic acid), read-out: EC50 (with co-corrector)
[3] = CSE-HRP, with co-corrector (2 μM)
[4] = test compound without co-corrector, read-out: EC50 (without co-corrector)
[5] = with co-corrector (2 μM of 3-[(2R,4R)-4-({[1-(2,2-difluoro-1,3-benzodioxol-5-yl)cyclopropyl]carbonyl}amino)-7-methoxy-3,4-dihydro-2H-chromen-2-yl]benzoic acid), read-out: EC50 (with co-corrector)
[6] = test compound without co-corrector
[7] = with co-corrector (2 μM of 3-[(2R,4R)-4-({[1-(2,2-difluoro-1,3-benzodioxol-5-yl)cyclopropyl]carbonyl}amino)-7-methoxy-3,4-dihydro-2H-chromen-2-yl]benzoic acid)

T1 sequence (P13569 with tags, fused parts or gaps DEL508-508): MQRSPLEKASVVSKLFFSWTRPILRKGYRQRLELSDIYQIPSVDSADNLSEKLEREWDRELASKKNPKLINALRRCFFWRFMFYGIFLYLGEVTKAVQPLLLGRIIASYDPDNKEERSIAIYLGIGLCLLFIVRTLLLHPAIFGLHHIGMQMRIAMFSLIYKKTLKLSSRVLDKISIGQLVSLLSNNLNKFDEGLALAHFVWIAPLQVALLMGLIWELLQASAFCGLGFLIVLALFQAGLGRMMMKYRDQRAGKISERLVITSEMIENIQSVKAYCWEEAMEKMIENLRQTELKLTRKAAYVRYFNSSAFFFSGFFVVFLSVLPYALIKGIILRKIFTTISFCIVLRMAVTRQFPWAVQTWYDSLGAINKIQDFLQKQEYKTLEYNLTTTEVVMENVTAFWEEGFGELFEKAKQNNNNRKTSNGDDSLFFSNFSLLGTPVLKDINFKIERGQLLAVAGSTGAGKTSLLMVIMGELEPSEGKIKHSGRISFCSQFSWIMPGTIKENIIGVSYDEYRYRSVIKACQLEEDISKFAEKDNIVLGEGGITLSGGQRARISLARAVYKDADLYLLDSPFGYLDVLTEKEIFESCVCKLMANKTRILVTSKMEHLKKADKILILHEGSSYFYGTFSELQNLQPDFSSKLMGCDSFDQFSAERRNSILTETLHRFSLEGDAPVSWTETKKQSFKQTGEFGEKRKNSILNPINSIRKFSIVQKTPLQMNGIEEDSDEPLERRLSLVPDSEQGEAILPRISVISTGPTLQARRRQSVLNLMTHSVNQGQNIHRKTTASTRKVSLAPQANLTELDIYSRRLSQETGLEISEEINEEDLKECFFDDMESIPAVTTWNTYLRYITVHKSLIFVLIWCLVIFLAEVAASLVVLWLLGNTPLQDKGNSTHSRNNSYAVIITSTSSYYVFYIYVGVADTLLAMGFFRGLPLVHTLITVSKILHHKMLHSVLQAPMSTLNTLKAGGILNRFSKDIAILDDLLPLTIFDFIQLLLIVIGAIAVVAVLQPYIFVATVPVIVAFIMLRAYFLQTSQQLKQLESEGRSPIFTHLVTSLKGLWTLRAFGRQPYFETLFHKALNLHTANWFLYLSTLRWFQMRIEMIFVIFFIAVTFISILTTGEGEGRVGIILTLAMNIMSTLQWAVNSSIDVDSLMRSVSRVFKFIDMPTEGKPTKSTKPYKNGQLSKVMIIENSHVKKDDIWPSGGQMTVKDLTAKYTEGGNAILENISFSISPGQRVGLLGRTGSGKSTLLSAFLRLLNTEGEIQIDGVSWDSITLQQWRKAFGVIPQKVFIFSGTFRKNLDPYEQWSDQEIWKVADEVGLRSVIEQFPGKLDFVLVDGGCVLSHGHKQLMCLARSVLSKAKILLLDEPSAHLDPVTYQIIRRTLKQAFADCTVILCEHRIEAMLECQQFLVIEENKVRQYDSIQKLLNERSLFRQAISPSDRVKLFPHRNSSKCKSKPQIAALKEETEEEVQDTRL

SMILES	EC50 [1] [nM]	EC50 [2] [nM]	Maximum % activity (with co-corrector) [3]	Emax (CSE-HRP, without co-corrector) [%]	EC50 [4] [nM]	EC50 [5] [nM]	Maximum % activity (with co-corrector) (with co-corrector (2 μM))	Emax (without co-corrector) [%]	Emax [6] [%]	Maximum % activity (with co-corrector) [7]
COc1ncc(Br)cc1CN[C@H]1[C@H](C(C)(C)C)[C@@H](C(=O)O)N(C(=O)C2CCCCC2)[C@H]1c1ccccc1 [II-158]	< 1000	< 1000	+++ (≥350)	100 to 200						
COc1nc(C(C)(C)C)ccc1CN[C@H]1[C@H](C(C)(C)C)[C@@H](C(=O)O)N(C(=O)[C@@H]2CCCCO2)[C@H]1c1ccccc1 [Example 38, (2S,3S,4S,5S)-3-tert-butyl-4-{[(6-tert-butyl-2-methoxypyridin-3-yl)methyl]amino}-1-[(2S)-oxane-2-carbonyl]-5-phenylpyrrolidine-2-carboxylic acid]					1000 to 10000	< 1000	+++ (≥350)	> 200		
CC(C)(C)c1cccc(CN[C@H]2[C@H](C(C)(C)C)[C@@H](C(=O)O)N(C(=O)C3CCCCC3)[C@H]2c2ccccc2)c1 [II-121]	1000 to 10000	1000 to 10000	++ (≥150 and <350)	< 100						
COc1ccc(C(C)(C)C)cc1CN[C@H]1[C@H](C23CC(C2)C3)[C@@H](C(=O)O)N(C(=O)OC(C)C)[C@H]1c1ccccc1F [III-222]					1000 to 10000	1000 to 10000	+++ (≥350)		100 to 200	
CC(C)(C)[C@@H]1[C@@H](NCc2ccccc2C(F)(F)F)[C@@H](c2ccccc2)N(C(=O)C2CCCCC2)[C@H]1C(=O)O (racemic) [II-31]	1000 to 10000	1000 to 10000	+++ (≥350)	< 100						
COc1ncc(-c2cccnc2)cc1CN[C@H]1[C@H](C(C)(C)C)[C@@H](C(=O)O)N(C(=O)C2CCCCC2)[C@H]1c1ccccc1 [II-345]					1000 to 10000	1000 to 10000			< 100	+++ (≥350)
COc1ccc(C(F)(F)F)cc1CN[C@@H]1[C@@H](C(C)(C)C)[C@@H](C(=O)O)N(C(=O)C2CCCCC2)[C@H]1c1ccccc1 [II-413]					1000 to 10000	1000 to 10000			< 100	++ (≥150 and <350)
COc1ccc(C(F)(F)F)cc1CN[C@H]1[C@H](C(C)(C)C)[C@@H](C(=O)O)N(C(=O)C(OC)C(C)C)[C@H]1c1ccccc1 (stereo partly shown) [II-273]	1000 to 10000	1000 to 10000	+++ (≥350)	> 200						
COc1nc(C(C)(C)C)ccc1CN[C@H]1[C@H](C(C)(C)C)[C@@H](C(=O)O)N(C(=O)Cc2ccccc2C)[C@H]1c1ccccc1C(C)C [II-427]					< 1000	< 1000			> 200	+++ (≥350)
COc1ccc(C(C)(C)C)cc1CN[C@H]1[C@H](C(C)(C)C)[C@@H](C(=O)O)N(C(=O)C2=C(F)CCCC2)[C@H]1c1ccccc1 [II-411]					1000 to 10000	< 1000			> 200	+++ (≥350)
CC(C)(C)[C@@H]1[C@@H](Nc2nccc(C(F)(F)F)n2)[C@@H](c2ccccc2)N(C(=O)C2CCCCC2)[C@H]1C(=O)O (racemic) [Example I-5]					1000 to 10000	1000 to 10000	+++ (≥350)	< 100		
COc1ncc(C(F)(F)F)cc1N[C@@H]1[C@@H](C(C)(C)OC)[C@H](C(=O)O)N(C(=O)C2CCCCC2)[C@@H]1c1ccccc1 (racemic) [II-89]	1000 to 10000	1000 to 10000	++ (≥150 and <350)	< 100						
COc1cc(C(F)(F)F)ccc1CN[C@H]1[C@H](C(C)(C)C)[C@@H](C(=O)O)N(C(=O)[C@H](OC)c2ccccc2)[C@H]1c1cccnc1N(C)C [II-87]	1000 to 10000	1000 to 10000	+++ (≥350)	100 to 200						
COc1ccc(C(C)(C)C)cc1CN[C@H]1[C@H](C(C)(C)C)[C@@H](C(=O)O)N(C(=O)[C@@H]2C[C@H]2c2ccccc2)[C@H]1c1ccccc1 (relative stereo) [II-339]					1000 to 10000	< 1000			> 200	+++ (≥350)
CC(C)(C)c1ccc(O)c(CN[C@H]2[C@H](C(C)(C)C)[C@@H](C(=O)O)N(C(=O)C3CCCCC3)[C@H]2c2ccccc2)c1 [Example I-80]					> 10000	> 10000	+ (<150)	< 100		
CCC(C)c1ccc(OC)c(CN[C@H]2[C@H](C(C)(C)C)[C@@H](C(=O)O)N(C(=O)C3CCCCC3)[C@H]2c2ccccc2)c1 (stereo partly shown) [III-168]					< 1000	< 1000	+++ (≥350)		> 200	
COc1cccc(CN[C@@H]2[C@@H](C(C)(C)C)[C@H](C(=O)O)N(C(=O)C3CCCCC3)[C@@H]2c2ccccc2)c1OC (racemic) [III-13]					> 10000	> 10000			< 100	+ (<150)
COc1ccc(-c2cccs2)cc1CN[C@H]1[C@H](C(C)(C)C)[C@@H](C(=O)O)N(C(=O)C2CCCCC2)[C@H]1c1ccccc1 [II-275]	< 1000	< 1000	+++ (≥350)	> 200						
COc1ccc(C(C)(C)C)cc1CN[C@H]1[C@H](C(C)(C)C)[C@@H](C(=O)O)N(C(=O)c2cc(F)cc3c2OCOC3)[C@H]1c1ccccc1 [III-178]					1000 to 10000	1000 to 10000	+++ (≥350)		100 to 200	
COc1ncc(C2CCC2)cc1CN[C@H]1[C@H](C(C)(C)C)[C@@H](C(=O)O)N(C(=O)C2COc3ccccc3O2)[C@H]1c1ccccc1 (stereo partly shown) [II-474]					1000 to 10000	1000 to 10000			100 to 200	+++ (≥350)
COc1ccc(C(F)(F)F)cc1CN[C@H]1[C@H](C(C)(C)C)[C@@H](C(=O)O)N(C(=O)C2OC[C@@H]3CCC[C@H]23)[C@H]1c1ccccc1 (relative stereo) [Example I-108]					1000 to 10000	1000 to 10000	+++ (≥350)	100 to 200		
COc1ccccc1C1(CN[C@H]2[C@H](C(C)(C)C)[C@@H](C(=O)O)N(C(=O)OC(C)C)[C@H]2c2ccccc2)CCOCC1 [Example I-267]	> 10000	1000 to 10000	+ (<150)	< 100						
COc1ccc(C(C)(C)C)cc1CN[C@H]1[C@H](C(C)(C)C)[C@@H](C(=O)O)N(C(=O)C2CCCCO2)[C@H]1c1cccnc1OC(F)F (single isomer, unassigned) [II-489]					1000 to 10000	1000 to 10000			100 to 200	+++ (≥350)
CCCCOC(=O)N1[C@H](C(=O)O)[C@@H](C(C)(C)C)[C@H](NCc2cc(C(C)(C)C)ccc2OC)[C@@H]1c1ccccc1 [II-383]					1000 to 10000	< 1000			> 200	+++ (≥350)
COc1ccc(C(F)(F)F)cc1CN[C@H]1[C@H](C(C)(C)C)[C@@H](C(=O)O)N(C(=O)[C@@H]2OCC[C@@H]2C(C)C)[C@H]1c1ccccc1 (relative stereo) [Example I-105]					1000 to 10000	1000 to 10000	+++ (≥350)	< 100		
